Like-named read-outs stand apart in the source and are kept apart here.
Experiments:
[1] = tested on: AsPC-1-GTR and MIAPaCa-2-GTR cells; assay: Clonogenic assay, gemcitabine/tarceva-resistant lines; assay type: cell-based, human; conditions: 4 μmol/L CUR or CDF, 20 nmol/L GEM
[2] = tested on: pancreatosphere-derived tumor cells; assay: Pancreatosphere formation by pancreatosphere-derived tumor cells; assay type: cell-based; conditions: cells harvested from pancreatosphere-derived tumors
Text: Pancreatospheres (5,000) derived from MIAPaCa-2 cells were isolated and implanted in mice with 1:1 matrigel. […] RNA was extracted from the tumor tissue and assayed.
The animal was euthanized after 30 days because of tumor burden and photographed.

[3] = tested on: COX-2, PTEN expression; assay: Western blot of COX-2 and PTEN in tumor remnants; assay type: in vivo, mice; conditions: MIAPaCa-2 tumors
Description: COX-2, PTEN, and β-actin expression was determined by Western blot.

[4] = tested on: human colon cancer HCT 116 cells; assay: MTT assay, HCT 116 cell growth; assay type: cell-based; conditions: read-out: inhibition on cell proliferation
Description: (§1) The concentrations were 10 μM, 20 μM, and 30 μM. After aspiration of growth medium, (3-(4,5-Dimethylthiazol-2-yl)-2,5-diphenyltetrazolium bromide (MTT; 1 mg/ml) was added to the cell cultures, followed by incubation for 3 hours at 37° C. After the cells were crystallized, the MTT was removed and dimethylsulfoxide (DMSO) was added to dissolve the metabolized MTT product. The absorbance was then measured on a Wallac Victor^3 1420 Multi-label counter at 540 nm.

[5] = tested on: PGE2; assay: PGE2 immunoassay, three PC lines; assay type: cell-based, human; conditions: 24 h serum-free; CDF or CUR 1-4 μMol/L, GEM 10 nMol/L
[6] = tested on: AsPC-1, AsPC1-GTR, MIAPaCa-2, and MIAPaCa-2-GTR cell lines; assay: MTT cell survival and combination index, four PC lines; assay type: cell-based, human; conditions: 72 h, 4 μMol/L
Text: Untreated control has been assigned a value of 100%. The p value shown represents comparisons between a single agent t and their combinations by using a paired t-test. A combination Index (CI)<1 for the CDF and GEM combination indicates synergism. The results are shown on FIGS. 17A to 17D.

[7] = tested on: BxPC-3 cells; assay: MTT cell viability, BxPC-3 (gemcitabine-sensitive); assay type: cell-based, human; conditions: 0.1-4.0 μMol/L
Description: Cell growth was assessed by an MTT assay in a manner similar to that as described above. The color intensity was measured by a TECAN microplate fluorometer (Tecan Group, LTD, Research Triangle Park, N.C.) at 595 nm.

[8] = tested on: MIAPaCa-2 tumors; assay: MIAPaCa-2 subcutaneous xenograft tumor model; assay type: in vivo, mice; conditions: CDF or CUR 5 mg/mouse/day intragastric 12 days; GEM 1 mg/mouse i.v. x3
Description: Female CB17 SCID mice 4 wks old were purchased from Taconic Farms (Germantown, N.Y.). Small fragments of the MIAPaCa-2 xenograft were implanted subcutaneously and bilaterally into mice. […] Tumor measurements and changes in weight were performed and tissue was stored at −70° C. for RNA and protein extraction.

[9] = tested on: 5-FU+Ox-resistant cancer cells; conditions: alone or with 5-FU+Ox or FOLFOX; cited from earlier work
[10] = tested on: VEGF; assay: AlphaLISA VEGF secretion; assay type: cell-based, human; conditions: 72 h; MIAPaCa-E and MIAPaCa-M
Text: The effect of CDF on another downstream transcriptional target of NF-κβ, vascular endothelial growth factor (VEGF) secretion, was studied in the three human pancreatic cell lines.

[11] = molecular target: T1, cellular 26S proteasome (Homo sapiens, UniProt P20618+P28074); assay: Proteasomal chymotrypsin-like activity in treated HCT 116 cells; assay type: cell-based; conditions: 24 h
T1 construct: host or cells: HCT 116 human colon cancer cells
Description: HCT 116 human colon cancer cells; human pancreatic carcinoma cell lines BxPC-3 and MIA PaCa-2, were purchased from American Type Culture Collection (Manassas, Va.) and grown in Dulbecco modified Eagle's medium supplemented with 10% fetal bovine serum (FBS), 100 units/ml of penicillin, and 100 μg/ml of streptomycin. Cells were maintained at 37° C. and 5% CO2. FBS was obtained from Tissue Culture Biologicals (Tulare, Calif.). Penicillin and streptomycin were purchased from Invitrogen Co. (Carlsbad, Calif.).
As a control, untreated cells were maintained in the solvent ethanol (E).

[12] = tested on: pancreatospheres of AsPC-1 cells; assay: Sphere formation assay; assay type: cell-based, human; conditions: AsPC-1, varying concentrations
Description: A sphere formation assay was conducted for 1 week (FIG. 19A) and four weeks (FIG. 19B) to examine the effect of the treating agents on the CSC self-renewal capacity of the PC cell line AsPC-1. […] Therefore, it appears that CDF may cause pancreatospheres to be more sensitive to GEM, and as a result, CDF, or the combination of CDF/GEM, would be useful for targeted killing of CSCs.
Furthermore, pretreatment with CDF improved the outcome.

[13] = tested on: pancreatospheres of AsPC-1, AsPC1-GTR, MIAPaCa-2, and MIAPaCa-2-GTR cells; assay: Sphere disintegration assay; assay type: cell-based, human; conditions: 5 days treatment of 10-day spheres
Text: After allowing 10 days to generate the formation of pancreatospheres, the cells were subjected to the treating agent for 5 days.

[14] = tested on: BxPC-3 pancreatic cancer cells; assay: MTT assay, BxPC-3 cell growth, 72 h; assay type: cell-based, human; conditions: various concentrations
Description: as §1
The results are shown on FIG. 5 which is a series of four bar graphs, labeled FIG. 5A through FIG. 5D.

[15] = tested on: CD44 and EpCAM; assay: CD44 and EpCAM immunostaining of pancreatospheres; assay type: cell-based, human; conditions: AsPC-1 and AsPC-1-GTR, 7 days
Description: Single cell suspensions of AsPC-1 and AsPC-1-GTR were plated into sphere formation media as previously described. After 7 days, the pancreatospheres were collected, washed, and fixed. The CSC biomarkers, CD44 and EpCAM, were used for immunostaining and the pancreatospheres were examined with confocal microscopy.

[16] = oral 1 g/kg body wt., mouse; cited from earlier work

For `COc1cc(/C=C/C(=O)C(=Cc2ccc(F)c(F)c2)C(=O)/C=C/c2ccc(O)c(OC)c2)ccc1O` [CDF, (1E,6E)-1,7-bis(4-hydroxy-3-methoxyphenyl)hepta-1,6-diene{4(3,4 difluorobenzaldehyde)}-3,5-dione], the reduction of clonogenicity [1] was 80%, the “formation of new pancreatospheres” value [2] was “significant inhibition in the formation of new pancreatospheres” and the “expression of PTEN in tumor remnants” value [3] was “up-regulated”. The inhibition at 10 µM ([4]; HCT-116, 10 μM, 24 h) was 24%, the inhibition at 20 µM ([4]; HCT-116, 20 μM, 24 h) was 39% and the inhibition at 30 µM ([4]; HCT-116, 30 μM, 24 h) was 68%. For the same compound, the PGE2 secretion level [5] was “significant reduction in PGE2 level”, the cell survival [6] was “much more significant reduction of cell survival in PC cells than GEM, CUR, or their combination” and the cell viability [7] was “significant reduction in cell viability”. For the same compound, the tumor growth [8] was “significantly inhibited tumor growth”, the “reducing and/or reversing chemoresistant colon cancer cells” value [9] was “superior to naturally-occurring CUR” and the “secreted levels of VEGF” value [10] was “significant inhibition of secreted levels of VEGF”. The inhibition at 10 µM [11] was 34%, the inhibition at 20 µM [11] was 51% and the inhibition at 30 µM [11] was 61%. The “2nd passage of pancreatospheres” value [12] was “inhibited 2nd passage of pancreatospheres in a dose-dependent manner”, the disintegration of pancreatospheres [13] was “remarkably increased disintegration of pancreatospheres” and the cell growth inhibition [14] was “superior to CUR in inducing cell growth inhibition”. The “expression of CD44 and EpCAM in pancreatospheres” value [15] was “decreased the expression of CD44 and EpCAM in pancreatospheres”.
Compound `COc1cc(/C=C/C(=O)CC(=O)/C=C/c2ccc(O)c(OC)c2)ccc1O` [CUR, (1E,6E)-1,7-bis(4-hydroxy-3-methoxyphenyl)hepta-1,6-diene-3,5-dione, reference compound] has an inhibition at 10 µM ([4]; HCT-116, 24 h) of 24%, an inhibition at 20 µM ([4]; HCT-116, 24 h) of 53% and an inhibition at 30 µM ([4]; HCT-116, 24 h) of 49%. For the same compound, the PGE2 secretion level [5] was “significant reduction in PGE2 level”, the Cmax [16] was 220 ng/mL and the inhibition at 10 µM [11] was 27%. For the same compound, the inhibition at 20 µM [11] was 47% and the inhibition at 30 µM [11] was 64%.

Reference: patent US20140303109A1 (priority 2010, published 2014)
